Results taken from publication PMC3598812, “Evaluation of Anti-Hyperalgesic and Analgesic Effects of Two Benzodiazepines in Human Experimental Pain: A Randomized Placebo-Controlled Study” (PLoS ONE, 2013).

Assays:
Format in all cases: in vivo, human
healthy male volunteers [1] = experiment: Intramuscular single electrical stimulation pain threshold (tibialis anterior); details: mean (SD)
Description: (§1) Electrical stimulation was performed through electrodes placed distal to the lateral malleolus. A 25 ms, train-of-five, 1 ms, square-wave impulse (perceived as one stimulus), was delivered by a computer-controlled constant current stimulator (Digitimer DS7A, Neurospec, Letchworth Garden City, UK). The current intensity was increased from 1 mA in steps of 0.5 mA until a pain sensation was evoked.
(§2) A needle was placed in the tibialis anterior muscle, 14 cm distal from the caudal end of the patella and 20 mm in depth. The same single and repeated stimulation patterns and the same procedure described for cutaneous stimulation were used.

healthy male volunteers [2] = experiment: Cutaneous single electrical stimulation pain threshold; details: mean (SD)
Description: as §1
(§3) Three assessments were made and the mean of these 3 measurements was used for the data analysis.

healthy male volunteers [3] = experiment: Cutaneous repeated (5 stimuli) electrical stimulation, temporal summation threshold; details: mean (SD)
Description: The stimulus burst used for single stimulus was repeated 5 times at 2 Hz, at constant intensity. The current intensity of the 5 stimuli was increased from 1 mA in steps of 0.5 mA until the subjects felt pain during the last 2–3 of the 5 stimuli (indicating temporal summation).
as §3

healthy male volunteers [4] = experiment: Intramuscular repeated (20 stimuli) electrical stimulation, VAS; set-up: AUC of VAS during 20 intramuscular electrical stimuli: unit not given beside the values; details: mean (SD); for Maximal VAS during 20 intramuscular electrical stimuli: VAS 0-10
Description: The stimulus burst used for single stimulus was repeated for a train of 20 pulses at 2 Hz, at an intensity corresponding to the temporal summation threshold. During this 10 s stimulation, pain intensity was continuously rated by the subject with an electronic VAS, and the area under the curve (AUC) was computed. Additionally, the maximal VAS during stimulation was recorded.
as §2

healthy male volunteers [5] = experiment: Pain rating (VAS) after graded von Frey hair stimulation in the capsaicin hyperalgesic area; details: VAS 0-10, single oral dose (clobazam 20 mg, clonazepam 1 mg, tolterodine 1 mg), mean (SD)
Description: Additionally, mechanical pain sensitivity was assessed using a set of seven weighted pinprick stimuli to obtain a stimulus-response function. The test was applied 1 cm inside the outer border of the pinprick hyperalgesic area, using a set of 7 graded von Frey hair mechanical stimulators with fixed stimulus intensities (custom-made at Aalborg University, Denmark). The flat contact area of the stimulators has a 0.2 mm diameter, and the 7 stimulators exert forces of 8, 16, 32, 64, 128, 256 and 512 mN. The order of stimulation was defined randomly by computer. The stimulators were applied at a rate of 2 s on/2 s off. Subjects were asked to give a pain rating for each stimulus on a 10 cm VAS. Two assessments for each stimulation were made and the mean of these 2 measurements was used for the data analysis.

healthy male volunteers [6] = experiment: Cuff algometry (tourniquet cuff on the leg, VAS-time AUC); set-up: AUC of VAS during cuff algometry: unit not given beside the values; details: mean (SD)
Description: A tourniquet cuff was applied to the middle of the leg, at the level of the heads of the gastrocnemius and soleus muscle. The cuff was applied at the side contralateral to the side of electrical stimulation in order not to interfere with the positioning of the intramuscular electrodes. During stimulation, the volunteer rated the pain intensity on an electronic VAS scale. The cuff was inflated with compressed air until VAS 6 was reached. The maximum allowed inflating pressure was 200 kPa. The pressure was maintained for 10 min or until the subjects rated the pain as intolerable. The area under the curve VAS-time was computed. For those subjects who felt intolerable pain before 10 min, the time when the cuff was deflated was recorded and VAS 10 was extrapolated until 10 min. Additionally, the maximal VAS during inflation was recorded.

[7] = baseline before medication, per drug session
[8] = single oral dose (clobazam 20 mg, clonazepam 1 mg, tolterodine 1 mg), 120 min after medication
[9] = single oral dose (clobazam 20 mg, clonazepam 1 mg, tolterodine 1 mg), after flumazenil 0.2 mg iv
[10] = single oral dose (clobazam 20 mg, clonazepam 1 mg, tolterodine 1 mg), 30 min after medication
[11] = single oral dose (clobazam 20 mg, clonazepam 1 mg, tolterodine 1 mg), 60 min after medication
[12] = single oral dose (clobazam 20 mg, clonazepam 1 mg, tolterodine 1 mg), 90 min after medication

SMILES: Cc1ccc(O)c([C@H](CCN(C(C)C)C(C)C)c2ccccc2)c1 [Tolterodine]
- Pain threshold after single intramuscular electrical stimulation (healthy male volunteers [1]; [7]): 1.8 (1.2) mA
- Pain threshold after single intramuscular electrical stimulation (healthy male volunteers [1]; [8]): 2.2 (1.2) mA
- Pain threshold after single intramuscular electrical stimulation (healthy male volunteers [1]; [9]): 2.7 (1.7) mA
- Pain threshold after single cutaneous electrical stimulation (healthy male volunteers [2]; [7]): 9.9 (2.2) mA
- Pain threshold after single cutaneous electrical stimulation (healthy male volunteers [2]; [10]): 10.3 (2.6) mA
- Pain threshold after single cutaneous electrical stimulation (healthy male volunteers [2]; [11]): 10.7 (2.3) mA
- Pain threshold after single cutaneous electrical stimulation (healthy male volunteers [2]; [12]): 10.9 (2.7) mA
- Pain threshold after single cutaneous electrical stimulation (healthy male volunteers [2]; [8]): 11.5 (2.3) mA
- Pain threshold after single cutaneous electrical stimulation (healthy male volunteers [2]; [9]): 12.1 (2.6) mA
- Pain threshold after 5 cutaneous electrical stimuli (healthy male volunteers [3]; [7]): 8.8 (2.3) mA
- Pain threshold after 5 cutaneous electrical stimuli (healthy male volunteers [3]; [10]): 9.0 (2.4) mA
- Pain threshold after 5 cutaneous electrical stimuli (healthy male volunteers [3]; [11]): 9.2 (2.2) mA
- Pain threshold after 5 cutaneous electrical stimuli (healthy male volunteers [3]; [12]): 9.5 (2.2) mA
- Pain threshold after 5 cutaneous electrical stimuli (healthy male volunteers [3]; [8]): 9.7 (2.1) mA
- Pain threshold after 5 cutaneous electrical stimuli (healthy male volunteers [3]; [9]): 10.0 (2.3) mA
- Maximal VAS during 20 intramuscular electrical stimuli (healthy male volunteers [4]; [7]): 4.5 (1.6)
- Maximal VAS during 20 intramuscular electrical stimuli (healthy male volunteers [4]; [8]): 3.8 (2.4)
- Maximal VAS during 20 intramuscular electrical stimuli (healthy male volunteers [4]; [9]): 4.1 (2.5)
- AUC of VAS during 20 intramuscular electrical stimuli (healthy male volunteers [4]; [7]): 323 (127)
- AUC of VAS during 20 intramuscular electrical stimuli (healthy male volunteers [4]; [8]): 286 (198)
- AUC of VAS during 20 intramuscular electrical stimuli (healthy male volunteers [4]; [9]): 316 (206)
- VAS after von Frey hair 8 mN (healthy male volunteers [5]; 30 min after medication): 1.3 (1.5)
- VAS after von Frey hair 16 mN (healthy male volunteers [5]; 30 min after medication): 1.7 (1.8)
- VAS after von Frey hair 32 mN (healthy male volunteers [5]; 30 min after medication): 2.5 (1.9)
- VAS after von Frey hair 64 mN (healthy male volunteers [5]; 30 min after medication): 3.2 (2.3)
- VAS after von Frey hair 128 mN (healthy male volunteers [5]; 30 min after medication): 3.4 (2.2)
- VAS after von Frey hair 256 mN (healthy male volunteers [5]; 30 min after medication): 4.2 (2.1)
- VAS after von Frey hair 512 mN (healthy male volunteers [5]; 30 min after medication): 4.9 (2.0)
- VAS after von Frey hair 8 mN (healthy male volunteers [5]; 60 min after medication): 1.2 (1.3)
- VAS after von Frey hair 16 mN (healthy male volunteers [5]; 60 min after medication): 1.9 (1.9)
- VAS after von Frey hair 32 mN (healthy male volunteers [5]; 60 min after medication): 2.7 (2.2)
- VAS after von Frey hair 64 mN (healthy male volunteers [5]; 60 min after medication): 2.9 (1.8)
- VAS after von Frey hair 128 mN (healthy male volunteers [5]; 60 min after medication): 3.5 (2.2)
- VAS after von Frey hair 256 mN (healthy male volunteers [5]; 60 min after medication): 4.2 (2.1)
- VAS after von Frey hair 512 mN (healthy male volunteers [5]; 60 min after medication): 5.2 (2.0)
- VAS after von Frey hair 8 mN (healthy male volunteers [5]; 90 min after medication): 1.2 (1.4)
- VAS after von Frey hair 16 mN (healthy male volunteers [5]; 90 min after medication): 1.6 (1.9)
- VAS after von Frey hair 32 mN (healthy male volunteers [5]; 90 min after medication): 2.2 (1.4)
- VAS after von Frey hair 64 mN (healthy male volunteers [5]; 90 min after medication): 2.8 (2.0)
- VAS after von Frey hair 128 mN (healthy male volunteers [5]; 90 min after medication): 3.1 (2.0)
- VAS after von Frey hair 256 mN (healthy male volunteers [5]; 90 min after medication): 4.2 (2.0)
- VAS after von Frey hair 512 mN (healthy male volunteers [5]; 90 min after medication): 4.9 (2.1)
- VAS after von Frey hair 8 mN (healthy male volunteers [5]; 120 min after medication): 1.0 (0.9)
- VAS after von Frey hair 16 mN (healthy male volunteers [5]; 120 min after medication): 1.4 (1.3)
- VAS after von Frey hair 32 mN (healthy male volunteers [5]; 120 min after medication): 1.9 (1.3)
- VAS after von Frey hair 64 mN (healthy male volunteers [5]; 120 min after medication): 2.3 (1.5)
- VAS after von Frey hair 128 mN (healthy male volunteers [5]; 120 min after medication): 2.9 (2.0)
- VAS after von Frey hair 256 mN (healthy male volunteers [5]; 120 min after medication): 4.1 (2.5)
- VAS after von Frey hair 512 mN (healthy male volunteers [5]; 120 min after medication): 4.8 (2.2)
- VAS after von Frey hair 8 mN (healthy male volunteers [5]; after flumazenil 0.2 mg iv): 1.1 (1.2)
- VAS after von Frey hair 16 mN (healthy male volunteers [5]; after flumazenil 0.2 mg iv): 1.1 (0.9)
- VAS after von Frey hair 32 mN (healthy male volunteers [5]; after flumazenil 0.2 mg iv): 2.1 (1.6)
- VAS after von Frey hair 64 mN (healthy male volunteers [5]; after flumazenil 0.2 mg iv): 2.6 (1.7)
- VAS after von Frey hair 128 mN (healthy male volunteers [5]; after flumazenil 0.2 mg iv): 2.6 (1.5)
- VAS after von Frey hair 256 mN (healthy male volunteers [5]; after flumazenil 0.2 mg iv): 4.1(1.7)
- VAS after von Frey hair 512 mN (healthy male volunteers [5]; after flumazenil 0.2 mg iv): 5.0 (2.2)
- AUC of VAS during cuff algometry (healthy male volunteers [6]; [7]): 3348 (743)
- AUC of VAS during cuff algometry (healthy male volunteers [6]; [8]): 2686 (1155)
- AUC of VAS during cuff algometry (healthy male volunteers [6]; [9]): 2918 (1021)
